Laboratory results taken from ChEMBL document CHEMBL1681705, “Optimisation of ITK inhibitors through successive iterative design cycles” (Bioorg Med Chem Lett, 2011).
pIC50: −log10 of the molar value.

Experiments:
[1] = molecular target: T1, Tyrosine-protein kinase ITK/TSK (Homo sapiens, UniProt Q08881); experiment: Inhibition of recombinant GST-tagged full-length ITK expressed in baculovirus expression system after 30 mins by scintillation proximity assay
T1 sequence (Q08881 whole entry): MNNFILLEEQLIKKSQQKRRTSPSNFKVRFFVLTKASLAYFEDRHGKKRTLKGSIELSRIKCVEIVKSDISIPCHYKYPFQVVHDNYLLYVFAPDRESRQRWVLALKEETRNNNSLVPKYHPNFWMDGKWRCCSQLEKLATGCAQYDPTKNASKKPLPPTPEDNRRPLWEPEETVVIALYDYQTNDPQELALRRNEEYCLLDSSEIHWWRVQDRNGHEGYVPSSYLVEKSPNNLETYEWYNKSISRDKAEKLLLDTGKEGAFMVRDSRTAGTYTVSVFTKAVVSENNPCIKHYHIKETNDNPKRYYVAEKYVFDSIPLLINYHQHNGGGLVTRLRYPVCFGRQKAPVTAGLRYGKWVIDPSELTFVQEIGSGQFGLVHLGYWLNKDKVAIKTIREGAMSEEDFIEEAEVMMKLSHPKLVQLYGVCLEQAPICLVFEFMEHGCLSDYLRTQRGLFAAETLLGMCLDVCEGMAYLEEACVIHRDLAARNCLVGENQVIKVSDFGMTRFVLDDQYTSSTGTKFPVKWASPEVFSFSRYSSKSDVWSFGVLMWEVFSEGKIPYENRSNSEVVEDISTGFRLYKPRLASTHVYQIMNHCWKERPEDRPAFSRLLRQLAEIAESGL

cells = details: Homo sapiens, T-cell
Description: Antiinflammatory activity in human CD4+ T cell assessed as inhibition of anti-CD3/anti-CD28-induced IL-2 production treated 30 mins before anti-CD3/anti-CD28 challenge measured after 48 hrs by electro-chemiluminescence assay

SMILES	pIC50 [1]	pIC50 (cells)
Cc1ccc2cc(-c3n[nH]c4ccc(NS(=O)(=O)c5ccccc5F)cc34)[nH]c2c1		6.00
COCCNc1ccc2cc(-c3n[nH]c4ccccc34)[nH]c2c1	6.59	5.92
Cc1ccc2cc(-c3n[nH]c4ccc(NS(=O)(=O)c5sc(C)nc5C)cc34)[nH]c2c1	6.72	5.70
Cc1ccc2cc(-c3n[nH]c4ccc(NS(=O)(=O)c5ccccc5)cc34)[nH]c2c1		6.40
Cc1ccc2cc(-c3n[nH]c4ccc(NS(=O)(=O)c5ccc(F)cc5)cc34)[nH]c2c1		5.54
Cc1ccc2cc(-c3n[nH]c4ccc(NC(=O)c5ccco5)cc34)[nH]c2c1	6.28	
Cc1ccc2cc(-c3n[nH]c4cc(NC(=O)C5CCCCC5)ccc34)[nH]c2c1	< 4.30	
Cc1ccc2cc(-c3n[nH]c4cc(NC(=O)c5ccccc5)ccc34)[nH]c2c1	< 4.30	
Cc1ccc2cc(-c3n[nH]c4ccc(NCc5ccccc5)cc34)[nH]c2c1	6.28	
COCCN(C)C(=O)c1ccc2cc(-c3n[nH]c4ccccc34)[nH]c2c1	7.15	5.70
Cc1ccc2cc(-c3n[nH]c4ccc(NC(=O)Nc5ccccc5)cc34)[nH]c2c1	6.14	
COc1ccc(S(=O)(=O)Nc2ccc3[nH]nc(-c4cc5ccc(C)cc5[nH]4)c3c2)cc1		6.15
CC(C)CN(C)C(=O)c1ccc2cc(-c3n[nH]c4ccccc34)[nH]c2c1		5.80
CN(Cc1ccccc1)C(=O)c1ccc2cc(-c3n[nH]c4ccccc34)[nH]c2c1	7.22	5.03
Cc1ccc2cc(-c3n[nH]c4ccc(NC(=O)C5CCOCC5)cc34)[nH]c2c1	6.59	
Cc1ccc2cc(-c3n[nH]c4ccc(NC(=O)NCc5ccccc5)cc34)[nH]c2c1	6.12	
CN(c1ccccc1)c1ccc2cc(-c3n[nH]c4ccccc34)[nH]c2c1	6.51	
CCNC(=O)Nc1ccc2[nH]nc(-c3cc4ccc(C)cc4[nH]3)c2c1	7.08	6.22

SMILES	pIC50 [1]	pIC50 (cells)
Cc1ccc2cc(-c3n[nH]c4ccc(NS(=O)(=O)c5cccc(F)c5)cc34)[nH]c2c1		6.10
Cc1ccc2cc(-c3n[nH]c4ccc(NC(=O)CN(C)C)cc34)[nH]c2c1		6.22
Cc1ccc2cc(-c3n[nH]c4ccc(NS(=O)(=O)c5c(C)nn(C)c5C)cc34)[nH]c2c1	7.07	6.00
Cc1ccc2cc(-c3n[nH]c4ccc(NS(C)(=O)=O)cc34)[nH]c2c1	7.44	6.40
O=C(NCc1ccccc1)c1ccc2cc(-c3n[nH]c4ccccc34)[nH]c2c1		5.39
Cc1ccc2cc(-c3n[nH]c4ccc(NS(=O)(=O)c5cn(C)cn5)cc34)[nH]c2c1	7.59	6.40
Cc1ccc2cc(-c3n[nH]c4ccc(NS(=O)(=O)c5c(C)noc5C)cc34)[nH]c2c1	6.89	6.30
Cn1cncc1CNC(=O)c1ccc2cc(-c3n[nH]c4ccccc34)[nH]c2c1	7.70	
Cc1ccc2cc(-c3n[nH]c4ccc(NC(=O)NCc5ccco5)cc34)[nH]c2c1	6.51	
COc1cccc(S(=O)(=O)Nc2ccc3[nH]nc(-c4cc5ccc(C)cc5[nH]4)c3c2)c1		6.05
CCN(CC)C(=O)c1ccc2cc(-c3n[nH]c4ccccc34)[nH]c2c1		5.68
Cc1ccc2cc(-c3n[nH]c4ccc(NC(=O)Nc5c(C)noc5C)cc34)[nH]c2c1	7.14	6.52
CN(Cc1ccco1)C(=O)c1ccc2cc(-c3n[nH]c4ccccc34)[nH]c2c1	6.96	
Cc1ccc2cc(-c3n[nH]c4ccc(NC5CCN(Cc6ccccc6)C5)cc34)[nH]c2c1 (stereo not given)	7.52	6.46
CC(=O)Nc1ccc2[nH]nc(-c3cc4ccc(C)cc4[nH]3)c2c1		6.00
c1ccc2c(-c3cc4ccc(N5CCOCC5)cc4[nH]3)n[nH]c2c1	6.92	5.92
COCC(=O)Nc1ccc2[nH]nc(-c3cc4ccc(OC)cc4[nH]3)c2c1		6.30
Cc1ccc2cc(-c3n[nH]c4ccc(NCC(C)C)cc34)[nH]c2c1	6.07	

More lines, now with the values ahead:

pIC50 [1]	pIC50 (cells)	SMILES
6.11	5.49	Cc1ccc2cc(-c3n[nH]c4ccc(NC(=O)NC5CCCCC5)cc34)[nH]c2c1
	5.42	c1ccc2c(-c3cc4ccc(NCC5CCCCC5)cc4[nH]3)n[nH]c2c1
6.43		CC(=O)N1CCC(Nc2ccc3[nH]nc(-c4cc5ccc(C)cc5[nH]4)c3c2)CC1
	7.05	Cc1ccc2cc(-c3n[nH]c4ccc(NC5CCNCC5)cc34)[nH]c2c1
	5.02	O=C(NCC1CCCCC1)c1ccc2cc(-c3n[nH]c4ccccc34)[nH]c2c1
7.15	6.22	COCCc1ccc2cc(-c3n[nH]c4cccnc34)[nH]c2c1
7.00	5.96	CCC(=O)Cc1ccc2cc(-c3n[nH]c4cccnc34)[nH]c2c1
6.16		c1cnc2c(-c3cc4ccc(CC5CCCCC5)cc4[nH]3)n[nH]c2c1
6.00		CN(C)CCc1ccc2cc(-c3n[nH]c4cccnc34)[nH]c2c1
6.30		C(#Cc1ccc2cc(-c3n[nH]c4cccnc34)[nH]c2c1)CCc1cccnc1
6.68		c1ccc(Cc2ccc3cc(-c4n[nH]c5cccnc45)[nH]c3c2)cc1
6.46		c1cnc2c(-c3cc4ccc(CC5CCC5)cc4[nH]3)n[nH]c2c1
	6.92	Cc1ccc2cc(-c3n[nH]c4ccc(NC5CCN(C)CC5)cc34)[nH]c2c1
7.00	6.00	NC(=O)Cc1ccc2cc(-c3n[nH]c4cccnc34)[nH]c2c1
5.77		Cc1ccc2cc(-c3n[nH]c4ccc(NCC5CCCCC5)cc34)[nH]c2c1
6.21		Cc1ccc2cc(-c3n[nH]c4ccc(NC5CCC5)cc34)[nH]c2c1
6.55		COCC#Cc1ccc2cc(-c3n[nH]c4cccnc34)[nH]c2c1
6.96		CN(C)CC#Cc1ccc2cc(-c3n[nH]c4cccnc34)[nH]c2c1
